Read-outs that look alike come from different tables or passages of the source.
Tested on: Mycosphaerella graminicola; Anamorph: Septoria tritici; Bayer Code SEPTTR
Experiment: Leaf blotch of wheat, foliar fungicide treatment, one day protectant (1DP) or three day curative (3DC)
Type: in vivo, Septoria tritici on wheat plants (variety Yuma)
Settings: Zymoseptoria tritici, rating of percent disease control
[1] = 24 h, one day protectant (1DP), read-out: SETTTR 1DP 25 ppm
[2] = 24 h, one day protectant (1DP), read-out: SEPTTR 1DP 100 ppm
[3] = 72 h, three day curative (3DC), read-out: SEPTTR 3DC 25 ppm
[4] = 72 h, three day curative (3DC), read-out: SEPTTR 3DC 100 ppm

Row | Compound | pest or weed control at 25 ppm [1] [%] | pest or weed control at 100 ppm [2] [%] | pest or weed control at 25 ppm [3] [%] | pest or weed control at 100 ppm [4] [%]
1 | CC(Oc1ncc(F)c(/N=C2\CCCCN2C)n1)c1ccc(F)cc1 (stereo not shown) [Compound 424] | 51 to 75 | 76 to 100 | 51 to 75 | 76 to 100
2 | CN(C)/C=N/c1nc(OC(=O)Oc2cccc(C(F)(F)F)c2)ncc1F [Compound 425] | 76 to 100 | 76 to 100 | 76 to 100 | 76 to 100
3 | C/C(=N\Oc1ncc(F)c(/N=C/N(C)C)n1)c1ccccc1 [Compound 427] | 76 to 100 | 76 to 100 | 76 to 100 | 76 to 100
4 | Nc1nc(OC(=O)c2snc(Cl)c2Cl)ncc1F [Compound 428] | 51 to 75 | 51 to 75 | 26 to 50 | 76 to 100
5 | Nc1nc(OCc2cnc(Cl)s2)ncc1F [Compound 429] | 76 to 100 | 76 to 100 | 76 to 100 | 76 to 100
6 | Nc1cccc(COc2ncc(F)c(N)n2)c1 [Compound 430] | 76 to 100 | 76 to 100 | 76 to 100 | 76 to 100
7 | Cc1cc(COc2ncc(F)c(N)n2)nn1C [Compound 431] | 76 to 100 | 76 to 100 | 76 to 100 | 76 to 100
8 | CC1(COc2ncc(F)c(N)n2)COC1 [Compound 433] | 0 to 25 | 0 to 25 | 0 to 25 | 0 to 25
9 | CC[Si](CC)(CC)Nc1nc(OCc2ccn(C)n2)ncc1F [Compound 434] | 76 to 100 | 76 to 100 | 76 to 100 | 76 to 100
10 | O=C(Nc1nc(OCc2ccccc2)ncc1F)c1ccccc1 [Compound 435] | 76 to 100 | 76 to 100 | 51 to 75 | 76 to 100
11 | N#Cc1cc(COc2ncc(F)c(N)n2)ccn1 [Compound 437] | 0 to 25 | 51 to 75 | 0 to 25 | 51 to 75
12 | Fc1ccccc1CNC(=S)Nc1nc(OCc2ccccc2)ncc1F [Compound 438] | 51 to 75 | 76 to 100 | 0 to 25 | 0 to 25
13 | Cc1cc(C)cc(COc2ncc(F)c(NSc3ccccc3[N+](=O)[O-])n2)c1 [Compound 440] | 0 to 25 | 0 to 25 | 26 to 50 | 0 to 25
14 | CC(C)Oc1cccc(COc2ncc(F)c(N)n2)c1 [Compound 441] | 76 to 100 | 76 to 100 | 76 to 100 | 76 to 100
15 | Nc1nc(OCc2snc(Cl)c2Cl)ncc1F [Compound 442] | 76 to 100 | 76 to 100 | 76 to 100 | 76 to 100
16 | Cc1ccc(COc2ncc(F)c(NSc3ccccc3[N+](=O)[O-])n2)cc1 [Compound 443] | 76 to 100 | 76 to 100 | 26 to 50 | 26 to 50
17 | COc1ccccc1OC(=O)Oc1ncc(F)c(/N=C/N(C)C)n1 [Compound 444] | 76 to 100 | 76 to 100 | 76 to 100 | 76 to 100

Row | Compound | pest or weed control at 25 ppm [1] [%] | pest or weed control at 100 ppm [2] [%] | pest or weed control at 25 ppm [3] [%] | pest or weed control at 100 ppm [4] [%]
18 | CCCNC(=O)N(C(=O)NCCC)c1nc(OCc2cccc(F)c2)ncc1F [Compound 445] | 51 to 75 | 76 to 100 | 76 to 100 | 76 to 100
19 | COc1cc(COc2ncc(F)c(N)n2)c(OC)cc1C [Compound 450] | 76 to 100 | 76 to 100 | 76 to 100 | 51 to 75
20 | N#CNc1nc(OCc2ccc(F)cc2)ncc1F [Compound 451] | 0 to 25 | 0 to 25 | 0 to 25 | 0 to 25
21 | O=C(Cc1ccccc1)Nc1nc(OCc2cccs2)ncc1F [Compound 453] | 76 to 100 | 76 to 100 | 51 to 75 | 76 to 100
22 | ON(c1nc(OCc2ccc(F)cc2)ncc1F)C1CCCCC1 [Compound 454] | 0 to 25 | 76 to 100 | 26 to 50 | 0 to 25
23 | Nc1nc(OCCc2ccc(Cl)cc2)ncc1F [Compound 455] | 51 to 75 | 76 to 100 | 26 to 50 | 76 to 100
24 | NN(Cc1ccccc1Cl)c1nc(OCc2ccc(F)cc2)ncc1F [Compound 456] | 51 to 75 | 76 to 100 | 0 to 25 | 76 to 100
25 | COCCCOc1ncc(F)c(/N=C/N(C)C)n1 [Compound 457] | 51 to 75 | 76 to 100 | 51 to 75 | 76 to 100
26 | Fc1cccc(COc2ncc(F)c(NCOCc3ccccc3)n2)c1 [Compound 458] | 0 to 25 | 51 to 75 | 0 to 25 | 0 to 25
27 | COCCOC(=O)Nc1nc(OCc2cccc(OC)c2)ncc1F [Compound 459] | 51 to 75 | 76 to 100 | 76 to 100 | 76 to 100
28 | Nc1nc(OCc2cccc(OC(F)(F)F)c2)ncc1F [Compound 460] | 76 to 100 | 76 to 100 | 76 to 100 | 76 to 100
29 | COc1ccc(CCCOc2ncc(F)c(N)n2)cc1 [Compound 462] | 51 to 75 | 76 to 100 | 51 to 75 | 26 to 50
30 | COc1cccc(COc2ncc(F)c(NOC(C)C)n2)c1 [Compound 463] | 0 to 25 | 51 to 75 | 26 to 50 | 51 to 75
31 | COc1ccc(COc2ncc(F)c(NC(=O)NCc3ccccc3F)n2)cc1F [Compound 464] | 0 to 25 | 0 to 25 | 0 to 25 | 26 to 50
32 | Nc1nc(OCc2ccc3ccccc3n2)ncc1F [Compound 465] | 76 to 100 | 76 to 100 | 76 to 100 | 76 to 100
33 | CC(C)OC(=O)Oc1ncc(F)c(/N=C/N(C)C)n1 [Compound 467] | 76 to 100 | 76 to 100 | 76 to 100 | 76 to 100
34 | Nc1nc(OCc2cccc(Cl)c2)ncc1F [Compound 468] | 76 to 100 | 76 to 100 | 76 to 100 | 76 to 100

Source: US9204653B2, “5-fluoro pyrimidine derivatives” (DOW AGROSCIENCES LLC, priority 2008, dated 2015)
